Laboratory results: publication PMC6273168, “Synthesis and Biological Evaluation of Novel 4-Morpholino-7,8-dihydro-5H-thiopyrano[4,3-d]pyrimidine Derivatives Bearing Phenylpyridine/ Phenylpyrimidine-Carboxamides” (Molecules, 2016)
Blank lines part the entries; values can stand above or below the molecule they belong to.

Tests used:
[1] = system: A549 (human lung cancer) cell line; experiment: MTT cell proliferation (cytotoxicity) assay, A549; format: cell-based; details: average of two separate determinations
Description: (§1) Taking GDC-0941 as reference compound, the target compounds […], 12a–j, 13a–g and 14a–g ere evaluated for the cytotoxicity against the three cancer cell lines A549, PC-3 and MCF-7 usg 3-(4,5-dimethylthiazolyl-2)-2,5-diphenyltetrazolium bromide (MTT) cell proliferation assays. In addition, one selected compounds 12h was fher evaluated for PI3Kα kinase inhibitory activity. The results, expressed as IC50 values or inhibitory rate, are sumrized in Table 1, Table 2 and Table 3.
(§2) The in vitro cytotoxic activities of all the compounds 11a–11j, 12a–12j, 13a–13g and 14a–14g was evaluated with A549, PC-3 and MCF-7 cell lines by the standard MTT assay, with GDC-0941 as positive control. The cancer cell lines were cultured in minimum essential medium (MEM) supplement with 10% fetal bovine serum (FBS). Approximately 4 × 10^3 cells, suspended in MEM medium, were plated onto each well of a 96-well plate and incubated in 5% CO2 at 37 °C for 24 h. The test compounds at indicated final concentrations were added to the culture medium and the cell cultures were continued for 72 h. Fresh MTT was added to each well at a terminal concentration of […] and incubated with cells at 37 °C for 4 h. The formazan crystals were dissolved in 100 µL DMSO each well, and the absorbency at 492 nm (for absorbance of MTT formazan) and 630 nm (for the reference wavelength) was measured with an ELISA reader. All of the compounds were tested three times in each of the cell lines. The results expressed as inhibition rates or IC50 (half-maximal inhibitory concentration) were the averages of two determinations and calculated by using the Bacus Laboratories Inc. Slide Scanner (Bliss) software (the Bacus Laboratories Inc. Slide Scanner (BLISS) system, Lombard, IL, USA).

[2] = system: PC-3 (human prostatic cancer) cell line; experiment: MTT cell proliferation (cytotoxicity) assay, PC-3; format: cell-based; details: 72 h, average of two separate determinations
Description: as §1, §2

[3] = system: MCF-7 (human breast cancer) cell line; experiment: MTT cell proliferation (cytotoxicity) assay, MCF-7; format: cell-based; details: average of two separate determinations
Description: as §1, §2

[4] = Homo sapiens, A549, 72 h, Table 2
[5] = Homo sapiens, MCF7, 72 h, Table 2
[6] = Homo sapiens, A549, 72 h, Table 1
[7] = Homo sapiens, MCF7, 72 h, Table 1

Molecule: O=C(Nc1ccc(-c2nc3c(c(N4CCOCC4)n2)CS(=O)(=O)CC3)cc1)c1cc(-c2ccc(F)cc2)ncn1 [Compound 14d]
IC50 [1, 4]: > 100 µM
IC50 ([2]; Homo sapiens, Table 2): > 100 µM
IC50 [3, 5]: > 100 µM
melting point: > 300 °C

Molecule: COc1ccc(-c2cc(C(=O)Nc3ccc(-c4nc5c(c(N6CCOCC6)n4)CSCC5)cc3)ncn2)cc1 [Compound 13b]
IC50 [1, 4]: > 100 µM
IC50 ([2]; Homo sapiens, Table 2): > 100 µM
IC50 [3, 5]: > 100 µM
melting point: 210 to 212.7 °C

Molecule: O=C(Nc1ccc(-c2nc3c(c(N4CCOCC4)n2)CSCC3)cc1)c1cc(-c2ccc(C(F)(F)F)cc2)ccn1 [Compound 11d, N-(4-(4-Morpholino-7,8-dihydro-5H-thiopyrano[4,3-d]pyrimidin-2-yl)phenyl)-4-(4-trifluoromethylphenyl) picolinamide]
IC50 [1, 6]: 43.46 ± 0.12 µM
IC50 [3, 7]: 50.3 ± 2.18 µM
melting point: 229.3 to 231.7 °C

Molecule: O=C(Nc1ccc(-c2nc3c(c(N4CCOCC4)n2)CSCC3)cc1)c1cc(-c2ccc(C(F)(F)F)cc2)ncn1 [Compound 13c]
IC50 [1, 4]: > 100 µM
IC50 ([2]; Homo sapiens, Table 2): > 100 µM
IC50 [3, 5]: > 100 µM
melting point: 244.2 to 245.8 °C

Molecule: COc1ccc(-c2ccnc(C(=O)Nc3ccc(-c4nc5c(c(N6CCOCC6)n4)CSCC5)cc3)c2)cc1 [Compound 11i, N-(4-(4-Morpholino-7,8-dihydro-5H-thiopyrano[4,3-d]pyrimidin-2-yl)phenyl)-4-(4methoxyphenyl) pyridine-carboxamide]
IC50 [1, 6]: 27.68 ± 0.1 µM
IC50 ([2]; Homo sapiens, Table 1): 65.66 ± 0.61 µM
IC50 [3, 7]: 32.4 ± 1.84 µM
melting point: 233.6 to 235.1 °C

Molecule: O=C(Nc1ccc(-c2nc3c(c(N4CCOCC4)n2)CS(=O)(=O)CC3)cc1)c1cc(-c2ccc(C(F)(F)F)cc2)ncn1 [Compound 14c]
IC50 [1, 4]: > 100 µM
IC50 ([2]; Homo sapiens, Table 2): > 100 µM
IC50 [3, 5]: > 100 µM
melting point: 287.1 to 289.2 °C

Molecule: N-(4-(4-Morpholino-7,8-dihydro-5H-thiopyrano[4,3-d]pyrimidin-2-yl)phenyl)-6-phenylpyridine-4-carboxamide [Compound 13g]
IC50 ([1]; 72 h, Table 2): > 100 µM
IC50 ([2]; Table 2): > 100 µM
IC50 ([3]; 72 h, Table 2): > 100 µM

Molecule: O=C(Nc1ccc(-c2nc3c(c(N4CCOCC4)n2)CS(=O)(=O)CC3)cc1)c1cc(-c2ccc(Br)cc2)ncn1 [Compound 14e]
IC50 [1, 4]: > 100 µM
IC50 ([2]; Homo sapiens, Table 2): > 100 µM
IC50 [3, 5]: 27.4 ± 1.27 µM
melting point: > 300 °C

Molecule: O=C(Nc1ccc(-c2nc3c(c(N4CCOCC4)n2)CSCC3)cc1)c1cc(-c2ccc(Br)cc2)ncn1 [Compound 13e]
IC50 [1, 4]: > 100 µM
IC50 ([2]; Homo sapiens, Table 2): > 100 µM
IC50 [3, 5]: > 100 µM
melting point: 251.8 to 255 °C

Molecule: CS(=O)(=O)N1CCN(Cc2cc3nc(-c4cccc5[nH]ncc45)nc(N4CCOCC4)c3s2)CC1 [GDC-0941, reference compound]
IC50 [1, 6]: 6.99 ± 0.21 µM
IC50 ([2]; Homo sapiens, Table 1): 0.2 ± 0.08 µM
IC50 [3, 7]: 0.07 ± 0.03 µM

Molecule: CCc1ccc(-c2ccnc(C(=O)Nc3ccc(-c4nc5c(c(N6CCOCC6)n4)CSCC5)cc3)c2)cc1 [Compound 11h, N-(4-(4-Morpholino-7,8-dihydro-5H-thiopyrano[4,3-d]pyrimidin-2-yl)phenyl)-4-(4-ethylphenyl) picolinamide]
melting point: 229.8 to 232.1 °C

Molecule: O=C(Nc1ccc(-c2nc3c(c(N4CCOCC4)n2)CS(=O)(=O)CC3)cc1)c1cc(-c2ccc(C(F)(F)F)cc2)ccn1 [Compound 12d, N-(4-(4-Morpholino-7,8-dihydro-6,6-dioxide-5H-thiopyrano[4,3-d]pyrimidin-2-yl)phenyl)-4-(4-trifluoro-methylphenyl) pyridinecarboxamide]
melting point: > 300 °C

Molecule: N-(4-(4-Morpholino-7,8-dihydro-5H-thiopyrano[4,3-d]pyrimidin-2-yl)phenyl)-6-(p-tolyl)pyrimidine-4-formamide [Compound 13a]
IC50 ([1]; 72 h, Table 2): > 100 µM
IC50 ([2]; Table 2): > 100 µM
IC50 ([3]; 72 h, Table 2): > 100 µM

Molecule: O=C(Nc1ccc(-c2nc3c(c(N4CCOCC4)n2)CSCC3)cc1)c1cc(-c2ccc(F)cc2)ccn1 [Compound 11f, N-(4-(4-Morpholino-7,8-dihydro-5H-thiopyrano[4,3-d]pyrimidin-2-yl)phenyl)-4-(4-fluorophenyl)pyridine amide]
melting point: 248.1 to 249.6 °C

Molecule: Cc1ccc(-c2ccnc(C(=O)Nc3ccc(-c4nc5c(c(N6CCOCC6)n4)CSCC5)cc3)c2)cc1 [Compound 11g, N-(4-(4-Morpholino-7,8-dihydro-5H-thiopyrano[4,3-d]pyrimidin-2-yl)phenyl)-4-(4-methylphenyl) picolinamide]
melting point: 275 to 276.8 °C

Molecule: O=C(Nc1ccc(-c2nc3c(c(N4CCOCC4)n2)CSCC3)cc1)c1cc(-c2ccc(F)cc2F)ccn1 [Compound 11c, N-(4-(4-Morpholino-7,8-dihydro-5H-thiopyrano[4,3-d]pyrimidin-2-yl)phenyl)-4-(2,4-difluorophenyl) picolinamide]
melting point: 235 to 236.7 °C

The next lines start with results.

melting point: 236.5 to 238.4 °C
Molecule: O=C(Nc1ccc(-c2nc3c(c(N4CCOCC4)n2)CSCC3)cc1)c1cc(-c2cccc(F)c2)ccn1 [Compound 11b, N-(4-(4-Morpholino-7,8-dihydro-5H-thiopyrano[4,3-d]pyrimidin-2-yl)phenyl)-4-(3-fluorophenyl)pyridine amide]
IC50 [1, 6]: 48.08 ± 0.13 µM
IC50 ([2]; Homo sapiens, Table 1): 60.3 ± 1.24 µM
IC50 [3, 7]: 51.7 ± 1.56 µM

melting point: 269 to 272.6 °C
Molecule: O=C(Nc1ccc(-c2nc3c(c(N4CCOCC4)n2)CS(=O)(=O)CC3)cc1)c1cc(-c2ccc(F)cc2F)ccn1 [Compound 12c, N-(4-(4-Morpholino-7,8-dihydro-6,6-dioxide-5H-thiopyrano[4,3-d]pyrimidin-2-yl)phenyl)-4-(2,4-difluorophenyl) picolinamide]

melting point: > 300 °C
Molecule: O=C(Nc1ccc(-c2nc3c(c(N4CCOCC4)n2)CS(=O)(=O)CC3)cc1)c1cc(-c2ccc(F)cc2)ccn1 [Compound 12f, N-(4-(4-Morpholino-7,8-dihydro-6,6-dioxide-5H-thiopyrano[4,3-d]pyrimidin-2-yl)phenyl)-4-(4-fluoro-phenyl) pyridincarboxamide]

melting point: 266.8 to 268.8 °C
Molecule: O=C(Nc1ccc(-c2nc3c(c(N4CCOCC4)n2)CS(=O)(=O)CC3)cc1)c1cc(-c2ccc(Cl)cc2)ccn1 [Compound 12e, N-(4-(4-Morpholino-7,8-dihydro-6,6-dioxide-5H-thiopyrano[4,3-d]pyrimidin-2-yl)phenyl)-4-(4-chloro-phenyl) pyridinecarboxamide]

melting point: 281.5 to 283.8 °C
Molecule: O=C(Nc1ccc(-c2nc3c(c(N4CCOCC4)n2)CS(=O)(=O)CC3)cc1)c1cc(-c2cccc(F)c2)ccn1 [Compound 12b, N-(4-(4-Morpholino-7,8-dihydro-6,6-dioxide-5H-thiopyrano[4,3-d]pyrimidin-2-yl)phenyl)-4-(3-fluoro-phenyl) pyridinecarboxamide]

melting point: 289 to 292.1 °C
Molecule: COc1ccc(-c2ccnc(C(=O)Nc3ccc(-c4nc5c(c(N6CCOCC6)n4)CS(=O)(=O)CC5)cc3)c2)cc1 [Compound 12i, N-(4-(4-Morpholino-7,8-dihydro-6,6-dioxide-5H-thiopyrano[4,3-d]pyrimidin-2-yl)phenyl)-4-(4-methoxy-phenyl) pyridinecarboxamide]

melting point: 229 to 233.8 °C
Molecule: O=C(Nc1ccc(-c2nc3c(c(N4CCOCC4)n2)CS(=O)(=O)CC3)cc1)c1cc(-c2ccccc2)ccn1 [Compound 12a, N-(4-(4-Morpholino-7,8-dihydro-6,6-dioxide-5H-thiopyrano[4,3-d]pyrimidin-2-yl)phenyl)-4-phenylpyridine Amide]
IC50 ([2]; Homo sapiens, Table 1): 74.27 ± 0.08 µM
